The values that follow are results of earlier work, collected in patent US10702520B1, “Pharmaceutical compositions of posaconazole” (SLAYBACK PHARMA LLC, priority 2019, dated 2020).

Like-named read-outs stand apart in the source and are kept apart here.

Take `CC[C@@H]([C@H](C)O)n1ncn(-c2ccc(N3CCN(c4ccc(OC[C@@H]5CO[C@@](Cn6cncn6)(c6ccc(F)cc6F)C5)cc4)CC3)cc2)c1=O` [Posaconazole free base, 4-[4-[4-[4-[[(3R,5R)-5-(2,4-difluorophenyl)tetrahydro-5-(1H-1,2,4-triazol-1-ylmethyl)-3-furanyl]methoxy]phenyl]-1-piperazinyl]phenyl]-2-[(1S,2S)-1-ethyl-2-hydroxypropyl]-2,4-dihydro-3H-1,2,4-triazol-3-one]: the solubility (usually the dissolved amount per volume that the medium holds) is on record as “approximately 0.8 mg/mL” (at gastric pH) and “less than 1 μg/mL” (pH about 6.4 or higher).

For `CCC(C)n1ncn(-c2ccc(N3CCN(c4ccc(OC[C@H]5CO[C@](Cn6cncn6)(c6ccc(Cl)cc6Cl)O5)cc4)CC3)cc2)c1=O` (mixture of isomers) [Itraconazole], the solubility is 6 µg/mL (in 0.1 N Hydrochloric acid) and “less than 1 μg/mL” (in water).
